Results published in paper PMC7105820, “Mutant ACVR1 Arrests Glial Cell Differentiation to Drive Tumorigenesis in Pediatric Gliomas” (Cancer Cell, 2020).

Molecular target: T1, ACVR1 (Homo sapiens, UniProt Q04771)
T1 sequence (Q04771 21-509): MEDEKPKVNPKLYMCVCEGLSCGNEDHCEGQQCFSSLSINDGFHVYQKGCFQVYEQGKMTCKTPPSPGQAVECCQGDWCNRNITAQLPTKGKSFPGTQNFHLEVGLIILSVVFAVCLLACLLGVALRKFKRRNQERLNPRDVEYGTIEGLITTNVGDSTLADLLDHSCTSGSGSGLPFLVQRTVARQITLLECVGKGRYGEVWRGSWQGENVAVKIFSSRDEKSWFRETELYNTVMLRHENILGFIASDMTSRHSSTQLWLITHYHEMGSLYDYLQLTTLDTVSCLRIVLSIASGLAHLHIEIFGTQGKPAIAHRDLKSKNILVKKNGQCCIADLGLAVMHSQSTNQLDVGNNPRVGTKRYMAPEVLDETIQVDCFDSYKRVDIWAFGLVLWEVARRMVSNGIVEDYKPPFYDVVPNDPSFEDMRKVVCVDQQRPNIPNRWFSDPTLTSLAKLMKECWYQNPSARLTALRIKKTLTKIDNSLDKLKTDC
Assay: ([…] Å) of the ACVR1-FKBP12 complex; IC50 from cellular NanoBRET target engagement (HEK-293)
Format: cell-based

## CCNc1cc(O)c2c(c1)/C=C/C[C@H](O)[C@H](O)C(=O)/C=C\[C@@H](C)[C@H](C)OC2=O [E6201, (3S,4R,5Z,8S,9S,11E)-14-(ethylamino)-8,9,16-trihydroxy-3,4-dimethyl-3,4,9,19-tetrahydro-1H-2-benzoxacyclotetradecine-1,7 (8H)-dione]
  IC50: ~250 nM
